The record followed here is US8431593B2, “Heteroaryl amide derivatives” (H. Lundbeck A/S, priority 2006, dated 2013).

The structures appear in SMILES notation.

The first test concerns the target T1, P2X7 receptor (Homo sapiens, UniProt Q99572).
T1 construct: host or cells: SH-SY5Y
T1 sequence (Q99572 1-595): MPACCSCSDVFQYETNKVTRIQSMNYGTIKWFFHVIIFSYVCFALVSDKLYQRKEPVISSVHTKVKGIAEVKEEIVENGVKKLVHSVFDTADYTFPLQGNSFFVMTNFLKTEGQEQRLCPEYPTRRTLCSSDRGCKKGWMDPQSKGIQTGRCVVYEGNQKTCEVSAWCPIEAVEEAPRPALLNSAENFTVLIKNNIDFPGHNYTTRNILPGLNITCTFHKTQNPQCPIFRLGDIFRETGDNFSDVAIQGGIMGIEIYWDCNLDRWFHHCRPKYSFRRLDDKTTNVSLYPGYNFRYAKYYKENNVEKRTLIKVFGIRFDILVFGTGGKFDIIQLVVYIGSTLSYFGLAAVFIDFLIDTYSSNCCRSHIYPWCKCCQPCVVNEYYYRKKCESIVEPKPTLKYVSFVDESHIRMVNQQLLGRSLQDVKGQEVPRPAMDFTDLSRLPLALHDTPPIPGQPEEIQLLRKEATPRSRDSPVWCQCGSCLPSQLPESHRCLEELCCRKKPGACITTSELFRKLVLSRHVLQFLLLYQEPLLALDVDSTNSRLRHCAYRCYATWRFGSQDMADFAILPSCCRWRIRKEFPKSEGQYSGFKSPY
As to the kind of experiment: P2X7 calcium mobilization assay, high throughput, antagonist activity (Example 4A). Type of test: cell-based.
Settings: not given
An outline of the steps:
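Cells plated 100,000/well the day before; after 1 h dye loading and one rinse, cells were preincubated 1 h at room temperature with test compound. Calcium mobilization then read on FLIPR^TETRA; maximum RFU corrected by subtracting mean no-agonist response and referenced to mean agonist-control maximum.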
For orientation: A change in cytosolic calcium serves as a functional read-out for many receptors and channels.
`CCC(O)CNC(=O)Cc1cn2c(C(=O)NCC34CC5CC(CC(C5)C3)C4)cccc2n1` (centres unmarked) [Compound 30, N-(adamantan-1-ylmethyl)-2-{2-[(2-hydroxy-butyl)amino]-2-oxoethyl}imi-dazo[1,2-a]pyridine-5-carboxamide]: the IC50 (in general, the point on the concentration scale where inhibition reaches its midpoint) was below 2000 nM.

On to `O=C(NCCO)c1cn2c(C(=O)NCC34CC5CC(CC(C5)C3)C4)cccc2n1` [Compound 8, 5-N-(adamantan-1-ylmethyl)--(2-hydroxyethyl)imi-dazo[1,2-a]pyridine-2,5-dicarboxamide], for which the IC50 is below 2000 nM.

Take `CCOC(=O)C1CCCN(Cc2cn3c(C(=O)NCC45CC6CC(CC(C6)C4)C5)cccc3n2)C1` (centres unmarked) [Compound 189, ethyl 1-({5-[(adamantan-1-ylmethyl)carbamoyl]imi-dazo[1,2-a]pyridin-2-yl}methyl)piperidine-3-carboxylate]: the IC50 is below 2000 nM.

The same test, now with this note: 50% decrease in the fluorescence response of cells exposed to 80 μM 2′(3′)-O-(4-benzoyl-benzoyl)adenosine 5′-triphosphate; Example 4A; read-out: IC50.
As for `CC(C)C[C@H](NC(=O)c1cn2c(C(=O)NC[C@@H]3CC[C@H]4C[C@@H]3C4(C)C)cccc2n1)C(N)=O` [Compound 515, 2-N-[(1S)-1-carbamoyl-3-methylbutyl]-5-N-{[(1S,2R,5S)-6,6-dimethylbicyclo [3.1.1]hept-2-yl]methyl} imidazo[1,2-a]pyridine-2,5-dicarboxamide], the IC50 was below 2000 nM.

For the compound `CC1CNCCN1C(=O)c1cn2c(C(=O)NCC34CC5CC(CC(C5)C3)C4)cccc2n1` (centres unmarked) [Compound 602, N-(adamantan-1-ylmethyl)-2-[(2-methylpiperazin-1-yl)carbonyl]imidazo[1,2-a]pyridine-5-carboxamide], the IC50 is below 2000 nM.

The test is the same for the next values; noted with them: 50% decrease in the fluorescence response of cells exposed to 80 μM of 2′(3′)-O-(4-benzoyl-benzoyl)adenosine 5′-triphosphate; Example 4A; read-out: IC50.
On to `CCN(C(=O)c1cn2c(C(=O)NCC34CC5CC(CC(C5)C3)C4)cccc2n1)C1CCN(C)CC1` [Compound 679, 5-N-(adamantan-1-ylmethyl)-2-N-ethyl-2-N-(1-methylpiperidin-4-yl)imidazo[1,2-a]pyridine-2,5-dicarboxamide], for which the IC50 was below 2000 nM.

In the case of `O=C(NCC12CC3CC(CC(C3)C1)C2)c1cccc2nc(C(=O)N3CCCC(C(=O)NCCCO)C3)cn12` (centres unmarked) [Compound 694, N-(adamantan-1-ylmethyl)-2-({3-[(3-hydroxypropyl)carbamoyl]piperidin-1-yl}carbonyl) imidazo[1,2-a]pyridine-5-carboxamide], the half-maximal inhibitory concentration (IC50) was below 2000 nM.

Regarding `COc1ccc(CC(C(=O)O)c2cn3c(C(=O)NCC45CC6CC(CC(C6)C4)C5)cccc3n2)cc1` (centres unmarked) [Compound 805, 2-{5-[(adamantan-1-ylmethyl)carbamoyl]imidazo[1,2-a]pyridin-2-yl}-3-(4-methoxyphenyl) propanoic acid], the IC50 was below 2000 nM.

As to `N#CCC1CCN(C(=O)c2cn3c(C(=O)NCC45CC6CC(CC(C6)C4)C5)cccc3n2)CC1` [Compound 705, N-(adamantan-1-ylmethyl)-2-{[4-(cyanomethyl)piperidin-1-yl]carbonyl} imidazo[1,2-a]pyridine-5-carboxamide], the IC50 was below 2000 nM.

In the case of `CNC1CCN(C(=O)Cc2cn3c(C(=O)NCC45CC6CC(CC(C6)C4)C5)cccc3n2)C1` (centres unmarked) [Compound 690, N-(adamantan-1-ylmethyl)-2-{2-[3-(methylamino)pyrrolidin-1-yl]-2-oxoethyl}imidazo[1,2-a]pyridine-5-carboxamide], the IC50 is below 2000 nM.

Take `CCOC(=O)C(Cc1ccccn1)c1cn2c(C(=O)NCC34CC5CC(CC(C5)C3)C4)cccc2n1` (centres unmarked) [Compound 736, ethyl 2-{5-[(adamantan-1-ylmethyl)carbamoyl]imidazo[1,2-a]pyridin-2-yl}-3-pyridin-2-ylpropanoate]: the IC50 is below 2000 nM.

On to `CC1(C)C2CC[C@H](CNC(=O)c3cccc4nc(CC(=O)NC5CCCC5)cn34)C1C2` (stereo partly drawn) [Compound 791, 2-[2-(cyclopentylamino)-2-oxoethyl]-N-{[(2S)-6,6-dimethylbicyclo [3.1.1]hept-2-yl]methyl}imidazo [1,2-a]pyridine-5-carboxamide], for which the IC50 was below 2000 nM.

Consider `O=C(NCC12CC3CC(CC(C3)C1)C2)c1cccc2nc(Cn3nnnc3-c3cccnc3)cn12` [Compound 814, N-(adamantan-1-ylmethyl)-2-[(5-pyridin-3-yl-1H-tetrazol-1-yl)methyl]imidazo [1,2-a]pyridine-5-carboxamide], for which the IC50 is below 2000 nM.

With `CCOC(=O)C(Cc1ccc(Cl)cc1)c1cn2c(C(=O)NCC34CC5CC(CC(C5)C3)C4)cccc2n1` (centres unmarked) [Compound 800, ethyl 2-{5-[(adamantan-1-ylmethyl)carbamoyl]imidazo[1,2-a]pyridin-2-yl}-3-(4-chlorophenyl) propanoate], the IC50 was below 2000 nM.

As for `CCOC(=O)C(Cc1cccnc1)c1cn2c(C(=O)NCC34CC5CC(CC(C5)C3)C4)cccc2n1` (centres unmarked) [Compound 689, ethyl 2-{5-[(adamantan-1-ylmethyl)carbamoyl]imidazo[1,2-a]pyridin-2-yl}-3-pyridin-3-ylpropanoate], the IC50 is below 2000 nM.

Still in this test, the particulars now being: 50% decrease in the fluorescence response of cells exposed to 80 μM of 2′(3′)-O-(4-benzoyl-benzoyl)adenosine 5′-triphosphate; determined as in Example 4A; read-out: IC50.
Turning to `O=C(Cc1cn2c(C(=O)NCC34CC5CC(CC(C5)C3)C4)cccc2n1)N[C@H]1CCNC1` [Compound 911, N-(adamantan-1-ylmethyl)-2-{2-oxo-2-[(3S)-pyrrolidin-3-ylamino]ethyl} imidazo [1,2-a]pyridine-5-carboxamide], the IC50 was below 2000 nM.

Take `O=C(O)Cc1nnnn1Cc1cn2c(C(=O)NCC34CC5CC(CC(C5)C3)C4)cccc2n1` [Compound 904, [1-({5-[(adamantan-1-ylmethyl)carbamoyl]imidazo[1,2-a]pyridin-2-yl}methyl)-1H-tetrazol-5-yl]acetic acid]: the IC50 is below 2000 nM.

`CC1(C)C2CC[C@@H](CNC(=O)c3cccc4nc(C(F)(F)F)cn34)C1C2` (stereo partly drawn) [Compound 1016, N-{[(2R)-6,6-dimethylbicyclo [3.1.1]hept-2-yl]methyl}-2-(trifluoromethyl) imidazo [1,2-a]pyridine-5-carboxamide]: the IC50 was below 2000 nM.

Staying with this test, now noted: P2X7 calcium mobilization, Example 4A; 50% decrease in the fluorescence response of cells exposed to 80 μM of (2′(3′)-O-(4-benzoyl-benzoyl)adenosine 5′-triphosephate); read-out: IC50.
For the compound `COc1ccc(C2(CNC(=O)c3cccc4nc(C(F)(F)F)cn34)CCCCC2)cc1` [Compound 1026, N-{[1-(4-methoxyphenyl)cyclohexyl]methyl}-2-(trifluoromethyl) imidazo [1,2-a]pyridine-5-carboxamide], the IC50 is below 2000 nM.

Still in this test, the particulars now being: SH-SY5Y cells; 50% decrease in fluorescence response to 80 μM BzATP; read-out: IC50.
Turning to `O=C(NCC12CC3CC(CC(C3)C1)C2)c1cccc2nc(CC(=O)N3C[C@@H]4C[C@H]3CN4)cn12` [Compound 192, N-(adamantan-1-ylmethyl)-2-{2-[(1S,4S)-2,5-diazabicyclo[2.2.1]hept-2-yl]-2-oxoethyl}imidazo[1,2-a]pyridine-5-carboxamide], the IC50 was below 2000 nM.

On to `O=C(NCC12CC3CC(CC(C3)C1)C2)c1cccc2nc(CC(=O)N3CCNCC3)cn12` [Compound 64, N-(adamantan-1-ylmethyl)-2-(2-oxo-2-piperazin-1-ylethyl)imidazo[1,2-a]pyridine-5-carboxamide], for which the IC50 was below 2000 nM.

With `O=C(NCCCO)c1cn2c(C(=O)NCC34CC5CC(CC(C5)C3)C4)cccc2n1` [Compound 80, 5-N-(adamantan-1-ylmethyl)--(3-hydroxy-propyl)imidazo[1,2-a]pyridine-2,5-dicarboxamide], the IC50 was below 2000 nM.

Still in this test, the particulars now being: fluorescence response of cells exposed to 80 μM 2′(3′)-O-(4-benzoyl-benzoyl)adenosine 5′-triphosphate; Example 4A; read-out: IC50.
With `C[C@@H]1COC[C@H](C)N1Cc1cn2c(C(=O)NCC34CC5CC(CC(C5)C3)C4)cccc2n1` (relative stereo) [Compound 343, rel-N-(adamantan-l-ylmethy)-2-{[(3R, 5S)-3,5-dimethylmorpholin-4-yl]methyl}imidazo[1,2-a]pyridine-5-carboxamide], the IC50 is below 2000 nM.
